Consider two molecules from patent publication US9987246B2, “4-benzylsulfonyl-2-butenenitrile” (Olatec Therapeutics LLC, priority 2014, dated 2018).

One assay relates to mice. The experiment in a line: Tail flick test (analgesic activity, 49° C. water bath). The class given is in vivo. As for the experimental part:
Tail flick test is a test of the pain response in animals. Tail flick test is used in basic pain research and to measure the effectiveness of analgesics, by observing the tail flick reaction to heat in an animal. This test assesses the nociceptive response to a local pain stimulus, and the ability of a drug to inhibit this response.
Vehicle control (dimethyl sulfoxide, DMSO) and test compound 4-benzylsulfonyl-2-butenenitrile in DMSO were administered intraperitoneally to mice with a volume of 5 mL/kg, twice, at 30 minutes before the first tail flick measurement. The test compound was administered at a dosage of 50 mg/kg. The positive control compound morphine was administered by subcutaneous injection at 8 mg/kg with a volume of 8 mL/kg, at 30 minutes before the first tail flick measurement. Each group had 10 mice.
The response of mice to heat stimulus was evaluated by measuring the time of tail-flick or tail-flick latency from 49° C. water bath. Briefly, the animal was placed in a restrainer with its tail hanging down. Approximately 2 inches of the tail was immersed in a beaker of water at 38±1° C. for about 30 seconds, and this was done twice to acclimate the animal to the procedure.
Subsequently, approximately 2 inches of the tail was immersed in a beaker of water at 49±1° C., at which point a timer was started.
Tail flick measurements were made 30, 60 and 120 minutes post administration of the dosage of test compound. An ANOVA was done, and if p<0.05, a Dunnett's t test was employed to calculate significant difference between vehicle control and test compound treated groups. A pairwise Student's t test was used to calculate differences between the morphine group and the control group.
Background: In hot-plate and tail-flick tests a longer latency is read as antinociception.

The test system of assay [1] is human peripheral blood mononuclear cells. The assay can be described thus: Pro-inflammatory cytokine release from human peripheral blood mononuclear cells in vitro. Type of assay: cell-based. The settings on record: statement only, no data or method given.

For `N#CC=CCS(=O)(=O)Cc1ccccc1` (racemic) [4-benzylsulfonyl-2-butenenitrile], the “tail flick latency compared with vehicle-treated mice” value was “statistically significant tail flick latency” with mice (50 mg/kg intraperitoneal in DMSO, 30 minutes, p value=0.046) and “statistically significant tail flick latency” in the assay with mice (50 mg/kg intraperitoneal in DMSO, 120 minutes, p value=0.020). Further, the “inhibition of pro-inflammatory cytokine release (e.g., IL-1β, IL-6, TNFα, IL-4 and IFNγ)” value in assay [1] is “effective in inhibiting pro-inflammatory cytokine release”.
For `CN1CC[C@]23c4c5ccc(O)c4O[C@H]2[C@@H](O)C=C[C@H]3[C@H]1C5` [Morphine, morphine], the “tail flick latency compared with vehicle-treated mice” value is “statistically significant tail flick latency” with mice (morphine 8 mg/kg subcutaneous injection, 30 minutes); “statistically significant tail flick latency” in the assay on mice (morphine 8 mg/kg subcutaneous injection, 60 minutes); “not at 120 minutes” in the assay on mice (morphine 8 mg/kg subcutaneous injection, 120 minutes).
